Values quoted from earlier work as cited in US7329673B2, “Acylated spiropiperidine derivatives as melanocortin-4 receptor agonists” (Merck & Co., Inc., priority 2003, dated 2008).

What was measured:
[1] = tested on: men with erectile dysfunction; conditions: for duration of effect / onset of action: after an oral dose; for share of men/patients in whom effective (adequate response): oral
[2] = tested on: males with psychogenic erectile dysfunction
[3] = in vivo, po

## Cc1ccc(N(CC2=NCCN2)c2cccc(O)c2)cc1 [phentolamine]
[1]
  duration of effect: 2 h
  onset of action: 5 to 30 min
  share of men/patients in whom effective (adequate response): 35-40%

## CCCc1nn(C)c2c(=O)[nH]c(-c3cc(S(=O)(=O)N4CCN(C)CC4)ccc3OCC)nc12 [sildenafil]
[1]
  duration of effect: about 4 hours
  onset of action: 30 to 60 min
  share of men/patients in whom effective (adequate response): about 70%

## Ac-Nle-c[Asp-His-DPhe-Arg-Trp-Lys]-NH2 [MT-II]
[2]; in vivo
  duration of action: approximately 2.5 hours
  time to onset of erection: 10 to 20 min
[2]; injected intramuscularly or subcutaneously
  response rate: 75%
[3]
  absorption into the systemic circulation: not absorbed into the systemic circulation
